Experimental data taken from ChEMBL document CHEMBL1201862, “PubChem BioAssay data set” (2004).
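Following 48 hours of exposure in 96-well plates, responses at five concentrations were used to interpolate endpoints linearly. GI50 marks 50% less growth.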 Activity calls are given as the source filed them. No stated cut-off is given here; in the data, active = GI50 up to about 1.1 µM and inactive = higher.

What was measured:
Assay in all cases: inhibition of tumour cell growth, NCI panel, 48 h
SF-268 = test system: SF-268
SF-539 = test system: SF-539
SNB-19 = test system: SNB-19
SF-295 = test system: SF-295
A498 = test system: A498
LXFL 529 = test system: LXFL 529
U-251 = test system: U-251
M19-MEL = test system: M19-MEL
A549 = test system: A549
HOP-92 = test system: HOP-92
UACC-257 = test system: UACC-257
DMS-273 = test system: DMS-273
DLD-1 = test system: DLD-1
SK-MEL-2 = test system: SK-MEL-2
OVCAR-3 = test system: OVCAR-3
SK-MEL-5 = test system: SK-MEL-5
K562 = test system: K562
UO-31 = test system: UO-31
ACHN = test system: ACHN
HCC 2998 = test system: HCC 2998
HCT-116 = test system: HCT-116
TK-10 = test system: TK-10
SNB-75 = test system: SNB-75
MOLT-4 = test system: MOLT-4
HCT-15 = test system: HCT-15
HL-60 = test system: HL-60
CAKI-1 = test system: CAKI-1
OVCAR-5 = test system: OVCAR-5
UACC-62 = test system: UACC-62
RPMI-8226 = test system: RPMI-8226
CCRF-CEM = test system: CCRF-CEM
LOX IMVI = test system: LOX IMVI
SK-OV-3 = test system: SK-OV-3
SNB-78 = test system: SNB-78
XF498 = test system: XF498
HOP-18 = test system: HOP-18
HOP-62 = test system: HOP-62
COLO 205 = test system: COLO 205
NCI-H460 = test system: NCI-H460
OVCAR-4 = test system: OVCAR-4
HT-29 = test system: HT-29
NCI-H23 = test system: NCI-H23
SR = test system: SR
RXF 393 = test system: RXF 393
KM12 = test system: KM12
EKVX = test system: EKVX
SW-620 = test system: SW-620
NCI-H522 = test system: NCI-H522
Malme-3M = test system: Malme-3M
NCI-H226 = test system: NCI-H226
SN12C = test system: SN12C
SK-MEL-28 = test system: SK-MEL-28
IGROV-1 = test system: IGROV-1
KM-20L2 = test system: KM-20L2
DMS-114 = test system: DMS-114
M14 = test system: M14
OVCAR-8 = test system: OVCAR-8
786-0 = test system: 786-0

`OCCN1CCN(CC/C=C2/c3ccccc3Sc3ccc(Cl)cc32)CC1` was tested, and the GI50 (SF-268) was 14.6 µM (inactive), the GI50 (SF-539) was 12.9 µM (inactive) and the GI50 (SNB-19) was 20.7 µM (inactive). For the same molecule, the GI50 (SF-295) was 18.4 µM (inactive), the GI50 (A498) was 14.5 µM (inactive) and the GI50 (LXFL 529) was 5.74 µM (inactive). The GI50 (U-251) was 12.9 µM (inactive), the GI50 (M19-MEL) was 1.94 µM (inactive) and the GI50 (A549) was 15.6 µM (inactive). For the same molecule, the GI50 (HOP-92) was 8.45 µM (inactive), the GI50 (UACC-257) was 2.52 µM (inactive) and the GI50 (DMS-273) was 6.05 µM (inactive). For the same molecule, the GI50 (DLD-1) was 13.4 µM (inactive), the GI50 (SK-MEL-2) was 14.9 µM (inactive) and the GI50 (OVCAR-3) was 14.7 µM (inactive). The GI50 (SK-MEL-5) was 5.89 µM (inactive), the GI50 (K562) was 2.56 µM (inactive) and the GI50 (UO-31) was 13.3 µM (inactive). The GI50 (ACHN) was 16 µM (inactive), the GI50 (HCC 2998) was 11.3 µM (inactive) and the GI50 (HCT-116) was 8.47 µM (inactive). The GI50 (TK-10) was 15.2 µM (inactive), the GI50 (SNB-75) was 3.69 µM (inactive) and the GI50 (MOLT-4) was 11.4 µM (inactive). For the same molecule, the GI50 (HCT-15) was 13.4 µM, the GI50 (HL-60) was 1.76 µM (inactive) and the GI50 (CAKI-1) was 10.5 µM (inactive). For the same molecule, the GI50 (OVCAR-5) was 17.1 µM (inactive), the GI50 (UACC-62) was 2.59 µM (inactive) and the GI50 (RPMI-8226) was 9.82 µM (inactive). The GI50 (CCRF-CEM) was 8.41 µM (inactive), the GI50 (LOX IMVI) was 8.81 µM (inactive) and the GI50 (SK-OV-3) was 15.8 µM (inactive). The GI50 (SNB-78) was 15.8 µM (inactive), the GI50 (XF498) was 12.6 µM (inactive) and the GI50 (HOP-18) was 1.5 µM (inactive). For the same molecule, the GI50 (HOP-62) was 16.1 µM (inactive), the GI50 (COLO 205) was 9.73 µM (inactive) and the GI50 (NCI-H460) was 5.93 µM (inactive). For the same molecule, the GI50 (OVCAR-4) was 17.2 µM (inactive), the GI50 (HT-29) was 2.57 µM (inactive) and the GI50 (NCI-H23) was 15.7 µM (inactive). For the same molecule, the GI50 (SR) was 12.1 µM (inactive), the GI50 (RXF 393) was 13.1 µM (inactive) and the GI50 (KM12) was 9.57 µM (inactive). The GI50 (EKVX) was 16.8 µM (inactive), the GI50 (SW-620) was 12 µM (inactive) and the GI50 (NCI-H522) was 16.4 µM (inactive). The GI50 (Malme-3M) was 5.33 µM (inactive), the GI50 (NCI-H226) was 14.6 µM (inactive) and the GI50 (SN12C) was 13.2 µM (inactive). For the same molecule, the GI50 (SK-MEL-28) was 1.87 µM (inactive), the GI50 (IGROV-1) was 15.2 µM (inactive) and the GI50 (KM-20L2) was 2.07 µM (inactive). For the same molecule, the GI50 (DMS-114) was 16.4 µM (inactive) and the GI50 (M14) was 2.3 µM (inactive).
`CCCCc1c2c(nc3c1CCCC3=O)C(=O)CCC2` was tested, and the GI50 (SF-268) was > 100 µM (inactive), the GI50 (SF-539) was > 100 µM (inactive) and the GI50 (SNB-19) was > 100 µM (inactive). The GI50 (SF-295) was > 100 µM (inactive), the GI50 (A498) was > 100 µM (inactive) and the GI50 (LXFL 529) was > 100 µM (inactive). For the same molecule, the GI50 (U-251) was > 100 µM (inactive), the GI50 (M19-MEL) was > 100 µM (inactive) and the GI50 (A549) was > 100 µM (inactive). The GI50 (OVCAR-8) was > 100 µM (inactive), the GI50 (HOP-92) was > 100 µM (inactive) and the GI50 (UACC-257) was > 100 µM (inactive). The GI50 (DMS-273) was > 100 µM (inactive), the GI50 (DLD-1) was > 100 µM (inactive) and the GI50 (SK-MEL-2) was > 100 µM (inactive). For the same molecule, the GI50 (OVCAR-3) was > 100 µM (inactive), the GI50 (SK-MEL-5) was > 100 µM (inactive) and the GI50 (K562) was > 100 µM (inactive). The GI50 (UO-31) was > 100 µM (inactive), the GI50 (ACHN) was > 100 µM (inactive) and the GI50 (HCC 2998) was > 100 µM (inactive). The GI50 (HCT-116) was > 100 µM (inactive), the GI50 (TK-10) was > 100 µM (inactive) and the GI50 (SNB-75) was 62.4 µM (inactive). The GI50 (MOLT-4) was > 100 µM (inactive), the GI50 (HCT-15) was > 100 µM and the GI50 (HL-60) was > 100 µM (inactive). The GI50 (OVCAR-5) was > 100 µM (inactive), the GI50 (UACC-62) was > 100 µM (inactive) and the GI50 (RPMI-8226) was > 100 µM (inactive). For the same molecule, the GI50 (CCRF-CEM) was > 100 µM (inactive), the GI50 (786-0) was > 100 µM (inactive) and the GI50 (LOX IMVI) was > 100 µM (inactive). The GI50 (SK-OV-3) was > 100 µM (inactive), the GI50 (SNB-78) was > 100 µM (inactive) and the GI50 (XF498) was > 100 µM (inactive). For the same molecule, the GI50 (HOP-18) was > 100 µM (inactive), the GI50 (HOP-62) was > 100 µM (inactive) and the GI50 (COLO 205) was > 100 µM (inactive). The GI50 (NCI-H460) was > 100 µM (inactive), the GI50 (OVCAR-4) was > 100 µM (inactive) and the GI50 (HT-29) was > 100 µM (inactive). For the same molecule, the GI50 (NCI-H23) was > 100 µM (inactive), the GI50 (SR) was > 100 µM (inactive) and the GI50 (RXF 393) was > 100 µM (inactive). The GI50 (KM12) was > 100 µM (inactive), the GI50 (EKVX) was > 100 µM (inactive) and the GI50 (SW-620) was > 100 µM (inactive). The GI50 (NCI-H522) was > 100 µM (inactive), the GI50 (Malme-3M) was > 100 µM (inactive) and the GI50 (NCI-H226) was > 100 µM (inactive). For the same molecule, the GI50 (SN12C) was > 100 µM (inactive), the GI50 (SK-MEL-28) was > 100 µM (inactive) and the GI50 (IGROV-1) was > 100 µM (inactive). The GI50 (KM-20L2) was > 100 µM (inactive), the GI50 (DMS-114) was > 100 µM (inactive) and the GI50 (M14) was > 100 µM (inactive).
